Measurements: PMC9415608, “Design, Synthesis and Biological Investigation of 2-Anilino Triazolopyrimidines as Tubulin Polymerization Inhibitors with Anticancer Activities” (Pharmaceuticals, 2022)
Read-outs that look alike come from different tables or passages of the source.

Legend:
[1] = system: cancer cell lines; conditions: antiproliferative agent; read-out: IC50, range; cited from earlier work
[2] = system: HeLa; assay: In vitro cell growth inhibition, resazurin viability assay; assay type: cell-based, human; conditions: Homo sapiens; 72 h, resazurin; mean ± SE
Description: (§1) All the cell lines used in this paper were of human origin and purchased from the American Type Culture Collection (ATCC, Manassas, VA, USA). Colon adenocarcinoma (HT-29), non-small cell lung carcinoma (A549), cervix carcinoma (HeLa) and breast adenocarcinoma (MDA-MB-231) cells were grown in RPMI (HT29) or DMEM (A549, HeLa, MDA-MB-231) medium (Gibco, Milano, Italy). Both media were supplemented with 115 units/mL of penicillin G (Gibco, Milano, Italy), 115 μg/mL of streptomycin (Invitrogen, Milano, Italy) and 10% fetal bovine serum (Invitrogen, Milano, Italy). All cell lines were grown at 37 °C in a humidified 5% CO2 atmosphere. The cells were grown in 2 mL of complete medium.
(§2) Stock solutions were prepared for each compound by dissolving in DMSO at the final concentration of 10 mM.
(§3) The cells were seeded in 96-well plates at the appropriate density for each cell line. The respective cell line densities used for the antiproliferative assay were HeLa and HT29 5000 cells/well, A549 4000 cells/well and MDA-MB-231 7000 cells/well. The total volume of medium was 100 µL. After 24 h, the cells were treated by performing serial 5-fold dilutions of the tested compounds starting from a concentration of 10 μM. All experimental conditions were tested in triplicate for statistical analysis. After 72 h of incubation, 10 μL of 100 μg/mL resazurin solution was added to each well and the plate was re-incubated for 3–4 h. The fluorescence of the wells in each plate was monitored using a Spark 10M spectrophotometer (Tecan Group Ltd., Mannedorf, Switzerland) with a 535 nm excitation wavelength and a 600 nm emission wavelength.

[3] = system: MDA-MB-231; assay: as above; assay type: cell-based, human; conditions: Homo sapiens, MDA-MB-231; 72 h, resazurin; mean ± SE
Description: as §1, §2, §3

[4] = system: Bovine brain tubulin; assay: Inhibition of [3H]colchicine binding to tubulin; conditions: tubulin 0.5 µM, [3H]colchicine 5 µM, tested compound 5 µM
Description: (§4) Bovine brain tubulin was purified as described previously. To evaluate the effects of the compounds on tubulin assembly in vitro [80], varying concentrations were preincubated with 10 μM tubulin in 0.8 M monosodium glutamate (pH 6.6) at 30 °C and the reaction mixtures then cooled to 0 °C. After addition of GTP, the mixtures were transferred to 0 °C cuvettes in Beckman Coulter (Brea, CA, USA) DU-7400/DU-7500 recording spectrophotometers equipped with electronic temperature controllers and warmed to 30 °C, and the assembly of tubulin was observed turbidimetrically. […] Inhibition of colchicine binding to tubulin was measured as described before, except that the reaction mixtures contained 0.5 μM tubulin and 5 μM each of [^3H]colchicine and test compound. Only one DEAE-cellulose filter was used per sample, and filtration was by gravity.
(§5) Bovine brain tubulin (see ref. [79] for details of purification) was used to examine effects on tubulin polymerization and colchicine binding. Briefly, in the polymerization experiments, different compound concentrations were preincubated with 10 µM tubulin for 15 min at 30 °C and cooled on ice. After GTP was added to each reaction mixture, the samples were transferred to 0 °C cuvettes in recording spectrophotometers with electronic temperature controllers. The temperature was raised to 30 °C over about 30 s, and turbidity development was followed for 20 min at 350 nm. […] In the current studies, [^3H]colchicine (from American Radiolabeled Corp., St. Louis, MO) binding was measured after 10 min at 37 °C. Reaction mixtures contained 0.5 µM tubulin and 5.0 µM each of the [^3H]colchicine and the potential inhibitor, and a single DEAE-cellulose filter was used for each sample, with gravity filtration.

[5] = system: MDA-MB-231, HeLa, A549 and HT-29 cancer cell lines; assay: Antiproliferative activity stated across the panel of cancer cell lines; assay type: cell-based, human; conditions: for IC50: Homo sapiens; for fold reduction in antiproliferative activity relative to 3d: range over cell lines
Description: as §1, §2, §3

[6] = system: Bovine brain tubulin; assay: Inhibition of tubulin polymerization (turbidimetric assembly assay); assay type: biochemical; conditions: tubulin at 10 μM, 20 min incubation; read-out: Tubulin Assembly IC50 ± SD
Description: as §4, §5

[7] = system: tubulin; design: method as in PMID 25025853; conditions: read-out: IC50 inhibition of tubulin polymerization; cited from earlier work
[8] = system: HT29; assay: In vitro cell growth inhibition, resazurin viability assay; assay type: cell-based, human; conditions: Homo sapiens, HT-29; 72 h, resazurin; mean ± SE
Description: as §1, §2, §3

[9] = system: A549; assay: as above; assay type: cell-based, human; conditions: Homo sapiens, A549; 72 h, resazurin; mean ± SE
Description: as §1, §2, §3

[10] = system: panel of four cancer cell lines; conditions: read-out: IC50 values, range; cited from earlier work
[11] = system: HeLa cells; conditions: read-out: IC50 antiproliferative activity against HeLa cells; cited from earlier work
[12] = system: tubulin; conditions: cited from earlier work
[13] = system: HCT-116 cancer cell line; design: method as in PMID 35196595; conditions: read-out: IC50 antiproliferative activity against HCT-116; cited from earlier work
[14] = system: tubulin; design: method as in PMID 35196595; conditions: read-out: IC50 tubulin polymerization inhibitor; cited from earlier work
[15] = on HeLa, A549 and HT-29 cancer cells, read-out: IC50 values, range

COc1cc(Nc2cc(C)nc3nc(Nc4ccc(C)cc4)nn23)cc(OC)c1OC [5-methyl-2-(p-toluidino)-7-(3′,4′,5′-trimethoxyanilino)-[1,2,4]triazolo[1,5-a]pyrimidine]
IC50 [1]: 520 to 1550 nM

COc1ccc(/C=C\c2cc(OC)c(OC)c(OC)c2)cc1O [CA-4, combretastatin A-4, reference compound]
IC50 [2]: 0.004 ± 0.001 µM | IC50 [3]: 0.005 ± 0.002 µM | Colchicine Binding % Inhibition ± SD [4]: 98 ± 2% | IC50 ([5]; against MDA-MB-231 and HeLa cancer cell lines, read-out: IC50, range): 4 to 5 nM | IC50 [6]: […]

COc1cc(C(=O)n2nc(Nc3ccc(C)cc3)nc2N)cc(OC)c1OC [Compound 2a]
IC50 [7]: 750 nM

COc1cc(-c2ccnc3nc(Nc4ccc(C)c(C)c4)nn23)cc(OC)c1OC [Compound 3f, N-(3,4-Dimethylphenyl)-7-(3,4,5-trimethoxyphenyl)-[1,2,4]triazolo[1,5-a]pyrimidin-2-amine]
IC50 [2]: 0.067 ± 0.0023 µM | IC50 [8]: 0.16 ± 0.041 µM | IC50 [3]: > 10 µM | IC50 [9]: 0.16 ± 0.045 µM | melting point: 189 to 190 °C | Colchicine Binding % Inhibition ± SD [4]: 18 ± 5% | IC50 [5, 15]: 67 to 160 nM | fold reduction in antiproliferative activity relative to 3d [5]: 2–5 fold | IC50 [6]: 800 ± 100 nM

CCc1ccc(Nc2nc3nccc(-c4cc(OC)c(OC)c(OC)c4)n3n2)cc1 [Compound 3h, N-(4-Ethylphenyl)-7-(3,4,5-trimethoxyphenyl)-[1,2,4]triazolo[1,5-a]pyrimidin-2-amine]
IC50 [2]: 0.24 ± 0.074 µM | IC50 [8]: 0.16 ± 0.033 µM | IC50 [3]: > 10 µM | IC50 [9]: 0.2 ± 0.044 µM | melting point: 199 to 200 °C | Colchicine Binding % Inhibition ± SD [4]: 21 ± 0.9% | IC50 [5, 15]: 160 to 240 nM | fold reduction in antiproliferative activity relative to 3d [5]: 5–7 fold | IC50 [6]: 1900 ± 200 nM

COc1ccc(-c2nc3nccc(-c4cc(OC)c(OC)c(OC)c4)n3n2)cc1O [Compound 4]
IC50 [10]: 3000 to 18000 nM | IC50 [11]: 60 nM | fold greater potency than CA-4, inhibition of tubulin assembly [12]: 3 fold

COc1cc(-c2cc(-c3ccc(Cl)cc3)nc3nc(N)nn23)cc(OC)c1OC [Compound 5]
IC50 [13]: 530 nM | IC50 [14]: 3840 nM
